Counter-ions that a name gives are not always drawn. Like-named read-outs stand apart in the source and are kept apart here.
How the values were obtained:
[1] = target: T1, PI3Kβ (Homo sapiens, UniProt P42338); test: Kinase enzyme assay (ADP-Glo), PI3Kβ; assay type: biochemical; details: read-out: In Vitro Enzymatic IC50 PI3Kβ
T1 construct: purchased SignalChem or BPS P28-10H / 40622

[2] = target: T2, p110α(E545K)/p85α (Homo sapiens, UniProt P42336, E545K); test: Kinase enzyme assay (ADP-Glo), PI3Kα (E545K); assay type: biochemical; details: read-out: In Vitro Enzymatic IC50 PI3Kα (E545K)
T2 construct: purchased SignalChem P27-15H
T2 sequence (P42336 whole entry E545K): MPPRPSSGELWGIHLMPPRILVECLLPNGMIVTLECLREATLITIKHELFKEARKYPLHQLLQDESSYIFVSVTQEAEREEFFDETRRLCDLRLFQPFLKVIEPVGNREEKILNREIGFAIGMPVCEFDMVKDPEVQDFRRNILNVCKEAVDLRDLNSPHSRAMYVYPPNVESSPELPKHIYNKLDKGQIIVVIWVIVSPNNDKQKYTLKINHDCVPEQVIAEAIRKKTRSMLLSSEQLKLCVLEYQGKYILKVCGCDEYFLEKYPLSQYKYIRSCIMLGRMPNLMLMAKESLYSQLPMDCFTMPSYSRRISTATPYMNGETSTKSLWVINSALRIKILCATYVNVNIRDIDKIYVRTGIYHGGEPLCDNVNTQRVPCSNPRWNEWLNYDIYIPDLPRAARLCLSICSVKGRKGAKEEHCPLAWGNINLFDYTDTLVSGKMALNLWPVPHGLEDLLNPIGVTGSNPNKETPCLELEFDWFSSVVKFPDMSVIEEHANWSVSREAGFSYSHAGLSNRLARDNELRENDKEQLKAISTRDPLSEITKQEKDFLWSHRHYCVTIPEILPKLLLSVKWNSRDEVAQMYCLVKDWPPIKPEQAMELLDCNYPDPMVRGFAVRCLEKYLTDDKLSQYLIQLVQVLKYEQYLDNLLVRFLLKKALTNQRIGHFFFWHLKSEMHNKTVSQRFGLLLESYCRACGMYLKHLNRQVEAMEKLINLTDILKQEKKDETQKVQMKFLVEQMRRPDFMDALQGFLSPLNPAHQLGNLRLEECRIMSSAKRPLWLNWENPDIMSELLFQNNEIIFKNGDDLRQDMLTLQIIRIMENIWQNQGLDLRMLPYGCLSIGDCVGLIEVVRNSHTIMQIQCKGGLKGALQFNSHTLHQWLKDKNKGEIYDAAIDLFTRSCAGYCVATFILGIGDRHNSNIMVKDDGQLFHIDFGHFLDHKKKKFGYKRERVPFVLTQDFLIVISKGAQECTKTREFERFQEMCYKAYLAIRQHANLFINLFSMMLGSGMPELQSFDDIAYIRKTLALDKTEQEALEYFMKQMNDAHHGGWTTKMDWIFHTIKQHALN
T2 sequence (P27986 whole entry partner): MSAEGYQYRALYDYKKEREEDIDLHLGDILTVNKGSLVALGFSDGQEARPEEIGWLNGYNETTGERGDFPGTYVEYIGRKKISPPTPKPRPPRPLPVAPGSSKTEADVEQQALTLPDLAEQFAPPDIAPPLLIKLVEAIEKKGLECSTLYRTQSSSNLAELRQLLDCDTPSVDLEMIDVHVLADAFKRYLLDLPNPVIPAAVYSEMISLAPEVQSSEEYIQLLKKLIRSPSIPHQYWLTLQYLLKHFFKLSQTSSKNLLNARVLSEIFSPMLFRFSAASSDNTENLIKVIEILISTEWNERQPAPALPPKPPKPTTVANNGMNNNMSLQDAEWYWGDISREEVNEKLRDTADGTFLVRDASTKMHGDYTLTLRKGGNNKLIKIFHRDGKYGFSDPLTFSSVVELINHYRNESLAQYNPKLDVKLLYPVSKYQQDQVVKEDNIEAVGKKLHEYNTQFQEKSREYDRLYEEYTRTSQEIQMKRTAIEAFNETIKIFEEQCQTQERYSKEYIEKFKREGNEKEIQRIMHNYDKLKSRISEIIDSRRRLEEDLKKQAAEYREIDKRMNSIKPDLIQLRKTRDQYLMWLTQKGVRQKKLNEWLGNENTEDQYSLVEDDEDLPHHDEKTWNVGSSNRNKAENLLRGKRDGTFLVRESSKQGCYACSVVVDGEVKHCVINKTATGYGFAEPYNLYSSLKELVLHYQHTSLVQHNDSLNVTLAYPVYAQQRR

[3] = target: HDAC1 (Homo sapiens, UniProt Q13547); test: HDAC enzyme assay, recombinant HDAC1
HDAC1, sequence (Q13547 whole entry): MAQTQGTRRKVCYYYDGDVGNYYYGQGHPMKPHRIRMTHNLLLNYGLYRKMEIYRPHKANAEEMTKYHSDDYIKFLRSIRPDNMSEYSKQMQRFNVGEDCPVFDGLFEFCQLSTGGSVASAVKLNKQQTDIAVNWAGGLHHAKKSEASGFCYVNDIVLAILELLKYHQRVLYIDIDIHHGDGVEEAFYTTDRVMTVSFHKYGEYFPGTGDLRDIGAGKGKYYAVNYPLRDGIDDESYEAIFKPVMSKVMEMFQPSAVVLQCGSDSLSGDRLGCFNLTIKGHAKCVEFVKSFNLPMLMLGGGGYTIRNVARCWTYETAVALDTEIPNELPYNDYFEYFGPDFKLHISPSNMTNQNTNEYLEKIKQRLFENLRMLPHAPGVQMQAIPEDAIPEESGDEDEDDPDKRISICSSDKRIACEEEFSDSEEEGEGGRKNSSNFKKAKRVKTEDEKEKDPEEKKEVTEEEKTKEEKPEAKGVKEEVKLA

[4] = target: HDAC (HeLa nuclear extracts); test: HDAC enzyme assay, HeLa nuclear extracts; details: read-out: In Vitro Enzymatic IC50 HDAC (HeLa)
[5] = target: T3, p110α(H1047R)/p85α (Homo sapiens, UniProt P42336, H1047R); test: Kinase enzyme assay (ADP-Glo), PI3Kα (H1047R); assay type: biochemical; details: read-out: In Vitro Enzymatic IC50 PI3Kα (H1047R)
T3 construct: purchased BPS 40641
T3 sequence (P42336 whole entry H1047R): as the sequence (P42336 whole entry E545K) above, with K545E, H1047R counted along it
T3 sequence (P27986 whole entry partner): as the sequence (P27986 whole entry partner) above

[6] = target: T4, HDAC6 (Homo sapiens, UniProt Q9UBN7); test: HDAC enzyme assay, recombinant HDAC6
T4 sequence (Q9UBN7 1-1215): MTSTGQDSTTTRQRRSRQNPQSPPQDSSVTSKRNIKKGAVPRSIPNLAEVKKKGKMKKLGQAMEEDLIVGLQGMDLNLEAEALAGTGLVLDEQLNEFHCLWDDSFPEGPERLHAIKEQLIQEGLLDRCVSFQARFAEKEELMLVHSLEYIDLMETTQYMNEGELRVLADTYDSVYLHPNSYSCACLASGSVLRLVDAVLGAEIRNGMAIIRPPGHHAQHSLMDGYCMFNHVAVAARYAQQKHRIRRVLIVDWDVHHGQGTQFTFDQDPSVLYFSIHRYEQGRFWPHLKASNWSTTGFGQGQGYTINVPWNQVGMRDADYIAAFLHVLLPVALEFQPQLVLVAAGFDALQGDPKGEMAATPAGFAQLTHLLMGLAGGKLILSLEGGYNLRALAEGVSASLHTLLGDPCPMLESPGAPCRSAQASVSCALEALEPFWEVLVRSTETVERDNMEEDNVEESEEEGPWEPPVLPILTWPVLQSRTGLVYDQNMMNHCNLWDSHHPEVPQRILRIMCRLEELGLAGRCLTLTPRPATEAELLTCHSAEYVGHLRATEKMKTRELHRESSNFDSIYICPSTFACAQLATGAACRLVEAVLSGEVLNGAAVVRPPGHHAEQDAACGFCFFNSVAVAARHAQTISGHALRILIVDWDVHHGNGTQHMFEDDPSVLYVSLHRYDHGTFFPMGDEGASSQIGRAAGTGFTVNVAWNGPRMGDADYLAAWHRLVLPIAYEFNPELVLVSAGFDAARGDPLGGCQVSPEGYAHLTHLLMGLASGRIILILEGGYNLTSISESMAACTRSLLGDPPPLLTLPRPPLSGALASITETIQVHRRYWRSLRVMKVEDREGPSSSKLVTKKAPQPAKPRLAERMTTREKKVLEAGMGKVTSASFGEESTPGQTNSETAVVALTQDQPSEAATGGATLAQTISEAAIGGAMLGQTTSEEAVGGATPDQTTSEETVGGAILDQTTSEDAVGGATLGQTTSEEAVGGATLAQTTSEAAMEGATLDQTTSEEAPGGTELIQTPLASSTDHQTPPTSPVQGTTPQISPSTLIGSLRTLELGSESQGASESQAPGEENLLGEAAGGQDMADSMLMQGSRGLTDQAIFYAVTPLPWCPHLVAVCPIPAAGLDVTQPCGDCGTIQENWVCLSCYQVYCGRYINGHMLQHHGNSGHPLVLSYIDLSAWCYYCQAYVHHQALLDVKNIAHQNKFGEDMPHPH

[7] = target: T5, PI3Kα (Homo sapiens, UniProt P42336); test: Kinase enzyme assay (ADP-Glo), PI3Kα; assay type: biochemical; details: read-out: In Vitro Enzymatic IC50 PI3Kα
T5 construct: purchased Invitrogen, or BPS Bioscience Inc., or SignalChem PV4788 / 40620 / P27-18H
T5 sequence (P42336 whole entry): as the sequence (P42336 whole entry E545K) above, with K545E counted along it
T5 sequence (P27986 whole entry partner): as the sequence (P27986 whole entry partner) above

[8] = tested on: HepG2 xenograft
Excerpt: In FIG. 26, Efficacy in CB17 scid mice HepG2 xenograft model is shown. […] Vehicle group has BW loss due to increasing tumor burden.

[9] = tested on: HepG2 xenograft; details: HepG2, NCr nude mice, 98 mg/kg oral QD×5 per week, day 18
[10] = tested on: 4T1; test: cells; details: Mus musculus, 4T1, read-out: In Vitro Cellular IC50 4T1
[11] = tested on: MCF7; test: Anti-proliferative assay (cellular IC50), MCF7; details: Homo sapiens
[12] = tested on: HEL9217; test: Anti-proliferative assay (cellular IC50), HEL9217; details: Homo sapiens, HEL 92.1.7, read-out: In Vitro Cellular IC50 HEL9217
[13] = tested on: NCI-H522; test: Anti-proliferative assay (cellular IC50), NCI-H522; details: Homo sapiens, NCI-H522, read-out: In Vitro Cellular IC50 NCI-H522
[14] = tested on: HuH-7; test: Anti-proliferative assay (cellular IC50), HuH-7; details: Homo sapiens, Huh-7, read-out: In Vitro Cellular IC50 HuH-7
[15] = tested on: Raji; test: Anti-proliferative assay (cellular IC50), Raji; details: Homo sapiens, read-out: In Vitro Cellular IC50 Raji
[16] = tested on: HCT 116; test: cells; details: Homo sapiens
[17] = tested on: Pfeiffer; test: Anti-proliferative assay (cellular IC50), Pfeiffer; details: Homo sapiens, read-out: In Vitro Cellular IC50 Pfeiffer
[18] = tested on: PLC/PRF/5; test: cells; details: Homo sapiens, PLC-PRF-5, read-out: In Vitro Cellular IC50 PLC/PRF/5
[19] = tested on: A-431; test: Anti-proliferative assay (cellular IC50), A-431; details: Homo sapiens, A-431, read-out: In Vitro Cellular IC50 A-431
[20] = tested on: HepG2; test: Anti-proliferative assay (cellular IC50), HepG2; details: Homo sapiens
[21] = tested on: A549; test: Anti-proliferative assay (cellular IC50), A549; details: Homo sapiens, A549, read-out: In Vitro Cellular IC50 A549
[22] = tested on: NCI-H460; test: Anti-proliferative assay (cellular IC50), NCI-H460; details: Homo sapiens, NCI-H460, read-out: In Vitro Cellular IC50 NCI-H460
[23] = tested on: HCCLM3; test: Anti-proliferative assay (cellular IC50), HCCLM3; details: Homo sapiens, HCCLM3, read-out: In Vitro Cellular IC50 HCCLM3
[24] = tested on: MOLT-4; test: Anti-proliferative assay (cellular IC50), MOLT-4; details: Homo sapiens
[25] = tested on: U87 MG; test: Anti-proliferative assay (cellular IC50), U87 MG; details: Homo sapiens, U-87 MG, read-out: In Vitro Cellular IC50 U87 MG
[26] = tested on: MV-4-11; test: cells; details: Homo sapiens
[27] = tested on: U138MG; test: Anti-proliferative assay (cellular IC50), U138MG; details: Homo sapiens, U138-MG, read-out: In Vitro Cellular IC50 U138MG
[28] = tested on: SK-HEP1; test: Anti-proliferative assay (cellular IC50), SK-HEP1; details: Homo sapiens, SK-HEP1, read-out: In Vitro Cellular IC50 SK-HEP1
[29] = tested on: Daudi; test: Anti-proliferative assay (cellular IC50), Daudi; details: Homo sapiens, read-out: In Vitro Cellular IC50 Daudi

T1 sequence (P42338 whole entry): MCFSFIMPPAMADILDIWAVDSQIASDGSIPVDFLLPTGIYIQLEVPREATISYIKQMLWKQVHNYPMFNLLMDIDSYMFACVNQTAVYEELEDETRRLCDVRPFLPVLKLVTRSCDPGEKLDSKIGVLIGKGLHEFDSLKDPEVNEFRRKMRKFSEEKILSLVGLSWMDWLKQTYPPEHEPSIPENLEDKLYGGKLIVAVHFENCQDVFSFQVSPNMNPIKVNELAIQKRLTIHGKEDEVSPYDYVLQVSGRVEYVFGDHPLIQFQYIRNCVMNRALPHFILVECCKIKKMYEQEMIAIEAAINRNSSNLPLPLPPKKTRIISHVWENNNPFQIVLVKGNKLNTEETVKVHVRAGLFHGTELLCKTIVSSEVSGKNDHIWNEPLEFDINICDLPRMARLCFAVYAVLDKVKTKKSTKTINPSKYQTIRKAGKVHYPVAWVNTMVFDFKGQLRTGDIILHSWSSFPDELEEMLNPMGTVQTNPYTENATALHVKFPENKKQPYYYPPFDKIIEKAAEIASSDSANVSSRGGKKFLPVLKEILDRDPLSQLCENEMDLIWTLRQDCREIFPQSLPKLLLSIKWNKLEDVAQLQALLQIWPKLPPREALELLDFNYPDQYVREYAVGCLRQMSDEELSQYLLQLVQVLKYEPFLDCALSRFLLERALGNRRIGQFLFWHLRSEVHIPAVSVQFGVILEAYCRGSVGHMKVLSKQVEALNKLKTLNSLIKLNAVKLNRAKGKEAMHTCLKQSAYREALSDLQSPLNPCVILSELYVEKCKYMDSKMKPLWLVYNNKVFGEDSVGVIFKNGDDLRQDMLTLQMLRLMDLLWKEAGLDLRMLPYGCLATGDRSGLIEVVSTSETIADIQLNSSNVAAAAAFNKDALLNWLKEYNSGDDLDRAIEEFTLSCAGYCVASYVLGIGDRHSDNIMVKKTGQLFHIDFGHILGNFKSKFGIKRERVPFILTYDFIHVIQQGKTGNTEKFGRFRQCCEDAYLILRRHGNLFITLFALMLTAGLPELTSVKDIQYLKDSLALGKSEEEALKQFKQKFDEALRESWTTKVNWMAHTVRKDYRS
T1 sequence (P27986 whole entry partner): as the sequence (P27986 whole entry partner) above

Compound: CC(C)n1cnc2c(-c3cnc(N)nc3)nc(NCCCCCC(=O)NO)nc21 [compound 38, 6-((6-(2-aminopyrimidin-5-yl)-9-isopropyl-9H-purin-2-yl)amino)-N-hydroxyhexanamide]
- IC50 [1]: 100 to 1000 nM
- IC50 [2]: 10 to 100 nM
- IC50 [3]: < 10 nM
- IC50 [4]: < 10 nM
- IC50 [5]: 10 to 100 nM
- IC50 [6]: < 10 nM
- IC50 [7]: 10 to 100 nM

Compound: CNC(=O)c1cc(Oc2ccc(NC(=O)Nc3ccc(Cl)c(C(F)(F)F)c3)cc2)ccn1 [sorafenib tosylate]
- Tumor growth inhibition (TGI) ([8]; HepG2, CB17 scid mice, 100 mg/kg QD×5×2 then 80 mg/kg QD×5×2 oral, day 26): 98%
- Tolerability ([8]; mouse, in vivo, po, 100 mg/kg): not well tolerated
- Tumor growth inhibition (TGI) [9]: 71%

Compound: O=C(CCCOc1cccc(-c2nc(N3CCOCC3)nc3c2ncn3C2CCCC2)c1)NO [compound 100, 4-(3-(9-cyclopentyl-2-morpholino-9H-purin-6-yl)phenoxy)-N-hydroxybutanamide]
- IC50 [10]: 500 to 2000 nM
- IC50 ([11]; MCF7, 72 h, read-out: In Vitro Cellular IC50 MCF7): < 500 nM
- IC50 ([11]; MCF7, read-out: In Vitro Cellular IC50 MCF7): < 500 nM
- IC50 [12]: < 500 nM
- IC50 [13]: 500 to 2000 nM
- IC50 [14]: < 500 nM
- IC50 [15]: < 500 nM
- IC50 ([16]; HCT-116, 72 h, read-out: In Vitro Cellular IC50 HCT 116): < 500 nM
- IC50 ([16]; HCT-116, read-out: In Vitro Cellular IC50 HCT 116): < 500 nM
- IC50 [17]: < 500 nM
- IC50 [18]: 500 to 2000 nM
- IC50 [19]: 500 to 2000 nM
- IC50 ([20]; HepG2, 72 h, read-out: In Vitro Cellular IC50 HepG2): 500 to 2000 nM
- IC50 ([20]; HepG2, read-out: In Vitro Cellular IC50 HepG2): 500 to 2000 nM
- IC50 [4]: 10 to 100 nM
- IC50 [21]: < 500 nM
- IC50 [22]: < 500 nM
- IC50 [23]: 2000 to 10000 nM
- IC50 ([24]; MOLT-4, 72 h, read-out: In Vitro Cellular IC50 MOLT-4): < 500 nM
- IC50 ([24]; MOLT-4, read-out: In Vitro Cellular IC50 MOLT-4): < 500 nM
- IC50 [25]: 500 to 2000 nM
- IC50 ([26]; MV4-11, 72 h, read-out: In Vitro Cellular IC50 MV-4-11): < 500 nM
- IC50 ([26]; MV4-11, read-out: In Vitro Cellular IC50 MV-4-11): < 500 nM
- IC50 [27]: 500 to 2000 nM
- IC50 [28]: 500 to 2000 nM
- IC50 [29]: < 500 nM

Compound: CC(C)n1cnc2c(N3CCOCC3)nc(-c3ccc(OCCCCCCC(=O)NO)cc3)nc21 [compound 81, N-hydroxy-7-(4-(9-isopropyl-6-morpholino-9H-purin-2-yl)phenoxy)heptanamide]
- IC50 [1]: 100 to 1000 nM
- IC50 [2]: 10 to 100 nM
- IC50 [3]: < 10 nM
- IC50 [4]: < 10 nM
- IC50 [5]: 10 to 100 nM
- IC50 [6]: < 10 nM
- IC50 [7]: 10 to 100 nM
